Assay results published in patent US8367004B2, “Apparatus and methods for nanoparticle generation and process intensification of transport and reaction systems” (Microfluidics International Corporation, priority 2008, dated 2013).
“And” between values parts separate entries of the source, which are not always exact repeats. Identical values can stand only once.

Legend:
Type in all cases: physicochemical
[1] = Electron microscopy of particle dimensions and shape
Experimental: A Hitachi S-4800 field-emission SEM was used to examine the surface structure and shape of the drug particles and also to verify qualitatively the particle size obtained from the particle size analyzers.
(§1) Material characterization was performed in the same manner as described above with reference to Example 1.

[2] = Particle size analysis of drug nanosuspensions by light scattering
Experimental: Crystallization experiments were performed using an exemplary reaction processor of the type depicted in FIG. 3. The solvent phase was fed into an intensifier pump using a peristaltic pump. The water phase was placed in the inlet reservoir and gravity fed. The two streams were blended at the inlet to the intensifier pump, noting that a low level of macro-mixing will occur at this process stage.
The total flow rate through the system was controlled by the microreactor design and process pressure. By varying the flow rate through the peristaltic pump at each processing pressure, various mixing ratios of the two streams were achieved. The following solvent-to-water volume ratios were examined: 1:3, 1:4, and 1:10. Equivalently, the water concentrations in the final mixture by weight were […], respectively. A total of 250 ml were processed in each experiment.
In addition to super-saturation, the effect of process pressure, NFN concentration in the solvent stream, and the presence of a surfactant were investigated. […] The concentration of NFN in DMSO varied from 5 to 20 mg NFN/ml DMSO. To determine if a surface active agent could help control particle size, a 1% aqueous solution of Suluton (BASF) was used to replace water as the anti-solvent, the concept being that the hydrophobic group of this amphoteric molecule would interact with the crystal surface at some threshold size, forming a barrier to further transport to and/or along the surface.
To provide appropriate controls for comparison, additional crystal production experiments were conducted by mixing the NFN/DMSO solution with water in a beaker at very low shear conditions. After mixing to obtain uniformity, NFN was allowed to form crystals under quiescent conditions. Size and shape characterization studies were performed. The crystals were then suspended in a saturated solution to conduct particle size reduction experiments under high shear rates using standard Microfluidizer® technology. The purpose was to compare this size reduction process on already grown crystals (“top-down” process) with the in situ process of growing crystal to the desired size with the apparatus/system of the present disclosure (“bottom-up” process).
The particle size distribution of the nano-suspensions was measured by two different methods: • (a) Light scattering using a Horiba 910 particle size analyzer: This instrument has a wide dynamic range of between 20 nm-1000 microns. • (b) Dynamic light scattering using a Malvern NanoS particle size analyzer: This instrument has a dynamic range of 0.5 nm-6 microns
(§2) Crystallization experiments using the disclosed apparatus/system were conducted at 138 and 83 MPa (20,000 and 12,000 psi) process pressures. […] The solvents were either dimethyl sulfoxide (DMSO) or N-Methyl-2-Pyrrolidone (NMP), and the antisolvent was water (see TABLE 3). Of note, alternative solvents include methanol, ethanol, acetone, dichloromethane, octanol and isopropyl alcohol, and alternative antisolvents include hexane and heptane. The water volume flow rate was typically 3-10 times the solvent volume flow rate, resulting in supersaturation between 1.4 and 9.
For the “top down” control experiments, suspensions of micron size crystals were processed with a conventional Microfluidizer® high shear processor. These crystals had been grown under no shear conditions by pouring the solvent and antisolvent streams into a beaker and then allowing the crystals to grow without stirring the fluids.
as §1

[3] = Stability of nanosuspensions
Experimental: as §2
A surfactant was added to the antisolvent (water) in order to: (a) stabilize the nanoparticles and limit their growth, and (b) minimize agglomeration of the particles and to thereby create a stable suspension. Two non-ionic surfactants were used, Solutol® HS 15 (polyoxyethylene esters of 12-hydroxystearic acid; […]) and a hydrophobically modified inulin polymeric surfactant, INUTEK SP1 (Orafti).

[4] = Mass transfer study, octanol phase to water phase; details: transfer from an octanol phase to a water phase
Experimental: The interfacial area in process intensification equipment can be quantified by performing mass transfer studies. In particular, a solute is introduced into the system of interest (e.g. methanol and soybean oil) and the mass transfer rate of this solute from one phase to the other is measured. The interfacial area can then be calculated. In order to accomplish this determination, it is necessary to have an estimate of the mass transfer coefficients in the individual phases—which can be determined through bench-top experiments. Reactant systems may be processed in the disclosed apparatus/system and a measurement of inlet concentration of the solute is made. The system is run at different flow rates until the concentration at the outlet is equal to the equilibrium concentration. […] The interfacial area can then be obtained.

[5] = Theoretical efficiency of solvent/antisolvent crystallization; details: 138 MPa
From the text: (§3) The solubility data were used to estimate super-saturation ratios and the theoretical efficiency of the process, which is defined as the percentage of the drug present in the solvent that precipitates as the solvent and antisolvent streams mix.

[6] = XRD percent crystallinity and crystallite size
Experimental: The samples were analyzed using a Rigaku Ultima III diffractometer. XRD analysis was used to investigate the effect of the processing conditions on the crystalline characteristics, i.e., structure, percent of crystallinity and crystallite size of NFN.

[7] = Solubility of NFN in water/DMSO mixtures (batch, gravimetric); details: for NFN solubility / % NFN precipitation from saturated DMSO solution: 20° C.
Experimental: Water was mixed with a DMSO-NFN solution of known concentration, while maintaining miscible conditions, to obtain a super-saturation state. […] The crystals were filtered from the liquid, then dried in a vacuum oven for about 10 hours at 90° C., and weighed. The filtered liquid phase was evaporated to dryness and the mass of the solid residue determined gravimetrically. The mass balance of the NFN (total amount recovered/amount dissolved) was also determined to establish precision of the solubility limit estimate. The closure was always greater than 90 percent.
as §3

[8] = Control (beaker, no shear), Solutol, SLS
[9] = Disclosed System, solvent, surfactant, pressure per Table 3
[10] = suspension from Disclosed System
[11] = overnight, particles produced with disclosed system
[12] = particles produced with control method
[13] = NFN nanosuspension from disclosed system, SEM
[14] = 138 MPa, 5 mg NFN/ml DMSO, DMSO:water 1:4, passed twice, Horiba

NC(=O)N1c2ccccc2CC(=O)c2ccccc21 [Oxycarbazepine]
Shape ([1]; Control): Needle
Median Particle Size (needle length) [2, 8]: 20,000 nm
Median Particle Size (needle width) [2, 8]: 5000 nm
median particle size ([2]; Control with site reduction after 25 passes, SLS): 1200 nm
particles by volume in the range of 2.5-6 microns ([2]; Disclosed System): about 5%
larger peak of bimodal particle size distribution ([2]; Disclosed System, SLS): about 1 micron
smaller peak of bimodal particle size distribution ([2]; Disclosed System, SLS): about 340 nm
median particle size [2, 9]: 767 nm
needle length ([2]; control conditions (beaker)): about 20 microns
needle width ([2]; control conditions (beaker)): about 5 microns
population of particles with sizes in the range of 4-6 microns ([2]; control sample after 25 passes): about 5%
median particle size ([2]; control sample after 25 passes through standard Microfluidizer processor): 1.2 microns
Stability ([3]; Control): Stable
Stability ([3]; Control with site reduction after 25 passes): Stable
Stability [3, 10]: Stable
Stability ([3]; suspension from Disclosed System, listed as oxycarbazepine): stable

CC(=O)Oc1ccccc1C(=O)O [aspirin]
interfacial transfer coefficients [4]: ≤ 0.5 m/s

CC[C@H]1OC(=O)[C@H](C)[C@@H](O[C@H]2C[C@@](C)(OC)[C@@H](O)[C@H](C)O2)[C@H](C)[C@@H](O[C@@H]2O[C@H](C)C[C@H](N(C)C)[C@H]2O)[C@](C)(O)C[C@@H](C)CN(C)[C@H](C)[C@@H](O)[C@]1(C)O [Azithromycin]
Shape ([1]; Disclosed System): Spheroidal
median particle size [2, 9]: 50-100 nm
stability of nanosuspension ([3]; in solvent and antisolvent mixture, and in water after solvent removed): stable
Stability [3, 10]: Stable

CCOC(=O)N1CCC(=C2c3ccc(Cl)cc3CCc3cccnc32)CC1 [Loratadine]
Shape ([1]; Disclosed System, INUTEK (DMSO)): Needle
Shape ([1]; Disclosed System, INUTEK (NMP)): Needle
needle length [1, 11]: 10-20 microns
needle width [1, 11]: 0.5-2 microns
needle length [1, 12]: hundreds of microns
needle width [1, 12]: tens of microns
median particle size ([2]; Disclosed System, INUTEK (DMSO), DLS): 332 nm
median particle size ([2]; Disclosed System, INUTEK (NMP), DLS): 379 nm
median particle size ([2]; Disclosed System, Solutol (DMSO), DLS): 90 nm
median particle size ([2]; Disclosed System, Solutol (NMP), DLS): 183 nm
particle size ([2]; INUTEK as surfactant): 332-379 nm
initial particle size ([2]; Solutol as surfactant, DMSO and NMP): about 90 nm

CCn1cc(C(=O)O)c(=O)c2cc(F)c(N3CCNCC3)cc21 [NFN, Norfloxacin]
needle length [1, 13]: 200-300 nm
needle width [1, 13]: 70-100 nm
particle length ([1]; crystallized in low shear environment (control)): up to 1 mm
theoretical efficiency (percentage of NFN that precipitates) ([5]; supersaturation ratio about 1.5): 32%
theoretical efficiency (percentage of NFN that precipitates) ([5]; supersaturation ratio about 7): 85%
median particle size ([2]; 60 MPa, 10 mg/ml DMSO, DMSO:water 1:4, passed twice): approximately 320 nm
median particle size [2, 14]: 186 nm
peak of particle size distribution [2, 14]: 166 nm
median particle size ([2]; 138 MPa, DMSO:water 1:4, passed twice, 5 mg NFN/g DMSO): approximately 190 nm
median particle size ([2]; 138 MPa, DMSO:water 1:4, passed twice, 20 mg NFN/g DMSO): ~340 nm
median particle size ([2]; 140 MPa, 10 mg/ml DMSO, DMSO:water 1:4, passed twice): about 200 nm
median particle size ([2]; NFN nanosuspensions, range over all Example 1 experiments): 170-350 nm
median particle size ([2]; control crystals after 30 passes at 207 MPa in standard Microfluidizer (top-down)): 428 nm
median particle size ([2]; with Suluton surfactant): 204 nm
median particle size ([2]; without surfactant): 209 nm
Average Crystallite Size ([6]; As purchased): 441 Å
Percent Crystallinity (±4%) ([6]; As purchased): 84.1%
Average Crystallite Size ([6]; Re-crystallized (high shear)): 239 Å
Percent Crystallinity (±4%) ([6]; Re-crystallized (high shear)): 79.7%
Average Crystallite Size ([6]; Re-crystallized (low shear)): 275 Å
Percent Crystallinity (±4%) ([6]; Re-crystallized (low shear)): 78% and 77.8%
Average Crystallite Size ([6]; Re-crystallized (no shear)): 727 Å
Percent Crystallinity (±4%) ([6]; Re-crystallized (no shear)): 85% and 85.1%
NFN solubility ([7]; 0.00 wt % water in water/DMSO solution): 21.00 mg drug/g solution
% NFN precipitation from saturated DMSO solution ([7]; 0.00 wt % water): 0.00%
NFN solubility ([7]; 9.17 wt % water in water/DMSO solution): 7.18 mg drug/g solution
% NFN precipitation from saturated DMSO solution ([7]; 9.17 wt % water): 43.39%
NFN solubility ([7]; 28.04 wt % water in water/DMSO solution): 1.57 mg drug/g solution
NFN solubility ([7]; 47.62 wt % water in water/DMSO solution): 0.86 mg drug/g solution
% NFN precipitation from saturated DMSO solution ([7]; 47.62 wt % water): 91.43%
% of NFN that precipitates ([7]; 50 wt % water): about 92%
NFN solubility ([7]; 57.69 wt % water in water/DMSO solution): 0.64 mg drug/g solution
% NFN precipitation from saturated DMSO solution ([7]; 57.69 wt % water): 92.86%
NFN solubility ([7]; 73.17 wt % water in water/DMSO solution): 0.71 mg drug/g solution
% NFN precipitation from saturated DMSO solution ([7]; 73.17 wt % water): 89.52%
NFN solubility ([7]; 90.19 wt % water in water/DMSO solution): 0.00 mg drug/g solution
% NFN precipitation from saturated DMSO solution ([7]; 90.19 wt % water): 100.00%
solubility limit of NFN in DMSO ([7]; ambient temperature): about 21 mg NFN/g DMSO
reduction of NFN solubility ([7]; dilution of DMSO solution to 28 wt % water): over 13 times
